From ChEMBL document CHEMBL1201862, “PubChem BioAssay data set” (2004)
Calls of active or inactive are those of the source.

Assays:
HEK293 [1] = assay: viability loss in HEK293T cells – cell-based, ATP luminescence, cherry-pick samples, cytotoxicity control, dose response (AID 687005); assay type: functional; conditions: Homo sapiens;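 note: cells exposed to compound for 48 hours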
[2] = HEK293 Cytotoxicity Assay Measured in Cell-Based System Using Plate Reader - 7071-01_Inhibitor_Dose_CherryPick_Activity_Set2.; assay type: functional
HepG2 = assay: HepG2 Cytotoxicity Assay Measured in Cell-Based System Using Plate Reader - 7071-02_Inhibitor_Dose_CherryPick_Activity.; assay type: functional; conditions: Homo sapiens
[3] = viability loss in HepG2 hepatoma cells – cell-based, cherry-picks, set 5, cytotoxicity control, dose response (AID 1053118); assay type: functional
[4] = viability loss in A549 lung cancer cells – cell-based, cherry-picks, […], cytotoxicity control, dose response (AID 1053119); assay type: functional
[5] = viability loss in HEK293 kidney cells – cell-based, cherry-picks, set 5, cytotoxicity control, dose response (AID 1053117); assay type: functional
Cryptococcus neoformans = assay: PubChem AID 686997; assay type: functional, organism-based
HeLa = assay: viability loss in HeLa cells – cell-based, ATP luminescence, cherry-pick samples, cytotoxicity control, dose response (AID 687004); assay type: functional; conditions: Homo sapiens
[6] = target: Potassium channel subfamily K member 9 (Homo sapiens, UniProt Q9NPC2); assay: KCNK9 flux blockade, concentration-response – cell-based, FluxOR thallium flux, selectivity assay for TASK1 inhibitor project, SAR follow-up (AID 652211); assay type: functional;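 note: potency is for inhibitors of the channel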
[7] = general mammalian cell viability loss – activator set, cherry-pick, cytotoxicity control for miR-122 modulator project, dose response (AID 720690); assay type: functional, cell-based;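 note: HEK293T human cells scored for general mammalian cytotoxicity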
NS3 = NS3 (Hepatitis C virus, UniProt A3EZJ3); assay: NS3h DNA-binding inhibition IC50 – biochemical, fluorescence polarization, ChemBridge library, dose response (AID 743264)
[8] = target: T1, High affinity choline transporter 1 (Homo sapiens, UniProt Q9GZV3); assay: inhibition of SLC5A7-mediated choline transport – cell-based, HEK-293 hCHT, [3H]-choline uptake, dose response (AID 652177); assay type: functional
T1 sequence (Q9GZV3 whole entry): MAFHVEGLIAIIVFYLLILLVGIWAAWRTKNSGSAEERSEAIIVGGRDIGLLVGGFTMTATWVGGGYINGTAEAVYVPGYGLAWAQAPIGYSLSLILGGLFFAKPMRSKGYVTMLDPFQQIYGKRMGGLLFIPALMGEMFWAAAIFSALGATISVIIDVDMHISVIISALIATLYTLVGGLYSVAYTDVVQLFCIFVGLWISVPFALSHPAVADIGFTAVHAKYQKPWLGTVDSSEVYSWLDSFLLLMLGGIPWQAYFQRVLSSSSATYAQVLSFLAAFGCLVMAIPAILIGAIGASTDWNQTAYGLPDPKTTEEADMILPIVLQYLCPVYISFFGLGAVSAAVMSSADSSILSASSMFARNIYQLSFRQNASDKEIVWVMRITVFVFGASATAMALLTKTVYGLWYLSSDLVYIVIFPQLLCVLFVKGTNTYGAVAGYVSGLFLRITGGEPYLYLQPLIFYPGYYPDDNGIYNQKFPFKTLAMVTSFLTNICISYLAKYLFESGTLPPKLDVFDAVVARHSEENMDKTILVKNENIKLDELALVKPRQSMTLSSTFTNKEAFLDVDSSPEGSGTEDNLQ

[9] = target: Nucleotide-binding oligomerization domain-containing protein 2 (Homo sapiens, UniProt Q9HC29); assay: inhibition of NOD2-driven NF-kB reporter – cell-based, luminescence, uHTS, HEK293 (AID 1566); assay type: functional
HEK293 [10] = assay: cells; assay type: functional, cell-based; conditions: Homo sapiens
HEK293 [11] = assay: inhibition of NOD1-driven NF-kB reporter – cell-based, luminescence, uHTS, primary screen (AID 1578); assay type: functional; conditions: Homo sapiens
HEK293 [12] = assay: cells; assay type: functional, cell-based; conditions: Homo sapiens; remark: listed apart in the source
HEK293 [13] = assay: cells; assay type: functional, cell-based; conditions: Homo sapiens; remark: listed apart in the source
HEK293 [14] = assay: NOD2 signaling inhibitors in MDP-stimulated cells, cell-based, uHTS, luminescence (AID 2001); assay type: functional; conditions: Homo sapiens
Albumin = Albumin (Bos taurus, UniProt P02769); assay: Counterscreen for inhibitors of T-cell receptor (TCR)-CD3 interaction: Fluorescence-based biochemical high throughput dose response assay to identify inhibitors of T-cell receptor (TCR)-CD3 interaction using a TAMRA-labeled BSA probe.; assay type: functional
Sequence of Albumin (P02769 whole entry): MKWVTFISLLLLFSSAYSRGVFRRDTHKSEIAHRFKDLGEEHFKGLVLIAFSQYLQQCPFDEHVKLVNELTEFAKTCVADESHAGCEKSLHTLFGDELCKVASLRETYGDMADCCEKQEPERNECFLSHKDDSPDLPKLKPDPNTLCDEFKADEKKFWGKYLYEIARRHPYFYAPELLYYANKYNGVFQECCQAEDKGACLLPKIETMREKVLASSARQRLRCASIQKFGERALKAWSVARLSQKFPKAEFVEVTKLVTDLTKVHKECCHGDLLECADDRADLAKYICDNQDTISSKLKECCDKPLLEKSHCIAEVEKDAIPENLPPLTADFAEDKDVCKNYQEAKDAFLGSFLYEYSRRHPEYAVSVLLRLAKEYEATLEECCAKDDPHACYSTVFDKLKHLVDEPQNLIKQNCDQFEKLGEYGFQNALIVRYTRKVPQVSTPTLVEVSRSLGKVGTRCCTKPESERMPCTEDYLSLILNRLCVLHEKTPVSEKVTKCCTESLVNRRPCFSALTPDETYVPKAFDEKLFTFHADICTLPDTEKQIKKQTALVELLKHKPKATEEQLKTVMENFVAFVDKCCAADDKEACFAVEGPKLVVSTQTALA

Sequence of NS3 (A3EZJ3 whole entry): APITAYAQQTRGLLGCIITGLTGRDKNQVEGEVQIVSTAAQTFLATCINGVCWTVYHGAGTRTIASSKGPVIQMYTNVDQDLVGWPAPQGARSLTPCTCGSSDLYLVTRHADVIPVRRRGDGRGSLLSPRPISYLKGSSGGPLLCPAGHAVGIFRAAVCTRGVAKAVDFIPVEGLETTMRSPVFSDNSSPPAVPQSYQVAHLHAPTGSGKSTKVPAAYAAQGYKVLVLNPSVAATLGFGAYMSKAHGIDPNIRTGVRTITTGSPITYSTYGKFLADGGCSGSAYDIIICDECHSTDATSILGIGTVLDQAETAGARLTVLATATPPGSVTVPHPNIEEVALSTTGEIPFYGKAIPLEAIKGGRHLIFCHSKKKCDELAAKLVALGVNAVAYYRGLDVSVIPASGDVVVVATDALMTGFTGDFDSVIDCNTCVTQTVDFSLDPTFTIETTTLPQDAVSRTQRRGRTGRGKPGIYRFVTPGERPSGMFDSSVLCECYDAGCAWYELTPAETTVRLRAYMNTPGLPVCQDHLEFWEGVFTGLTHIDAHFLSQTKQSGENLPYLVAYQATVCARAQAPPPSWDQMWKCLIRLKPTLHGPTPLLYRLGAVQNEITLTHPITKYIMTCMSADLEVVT
Sequence of Potassium channel subfamily K member 9 (Q9NPC2 whole entry): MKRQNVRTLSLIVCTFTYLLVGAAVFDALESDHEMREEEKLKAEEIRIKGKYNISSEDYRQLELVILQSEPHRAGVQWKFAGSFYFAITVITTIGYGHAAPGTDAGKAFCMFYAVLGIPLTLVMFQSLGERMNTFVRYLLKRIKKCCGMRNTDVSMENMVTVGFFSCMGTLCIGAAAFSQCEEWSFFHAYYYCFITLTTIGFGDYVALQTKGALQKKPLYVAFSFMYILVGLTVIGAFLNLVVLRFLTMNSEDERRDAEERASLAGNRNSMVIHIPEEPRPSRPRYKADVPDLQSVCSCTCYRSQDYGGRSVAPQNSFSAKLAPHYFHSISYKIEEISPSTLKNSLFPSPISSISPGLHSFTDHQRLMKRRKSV
Sequence of Nucleotide-binding oligomerization domain-containing protein 2 (Q9HC29 whole entry, the tested form may be a part): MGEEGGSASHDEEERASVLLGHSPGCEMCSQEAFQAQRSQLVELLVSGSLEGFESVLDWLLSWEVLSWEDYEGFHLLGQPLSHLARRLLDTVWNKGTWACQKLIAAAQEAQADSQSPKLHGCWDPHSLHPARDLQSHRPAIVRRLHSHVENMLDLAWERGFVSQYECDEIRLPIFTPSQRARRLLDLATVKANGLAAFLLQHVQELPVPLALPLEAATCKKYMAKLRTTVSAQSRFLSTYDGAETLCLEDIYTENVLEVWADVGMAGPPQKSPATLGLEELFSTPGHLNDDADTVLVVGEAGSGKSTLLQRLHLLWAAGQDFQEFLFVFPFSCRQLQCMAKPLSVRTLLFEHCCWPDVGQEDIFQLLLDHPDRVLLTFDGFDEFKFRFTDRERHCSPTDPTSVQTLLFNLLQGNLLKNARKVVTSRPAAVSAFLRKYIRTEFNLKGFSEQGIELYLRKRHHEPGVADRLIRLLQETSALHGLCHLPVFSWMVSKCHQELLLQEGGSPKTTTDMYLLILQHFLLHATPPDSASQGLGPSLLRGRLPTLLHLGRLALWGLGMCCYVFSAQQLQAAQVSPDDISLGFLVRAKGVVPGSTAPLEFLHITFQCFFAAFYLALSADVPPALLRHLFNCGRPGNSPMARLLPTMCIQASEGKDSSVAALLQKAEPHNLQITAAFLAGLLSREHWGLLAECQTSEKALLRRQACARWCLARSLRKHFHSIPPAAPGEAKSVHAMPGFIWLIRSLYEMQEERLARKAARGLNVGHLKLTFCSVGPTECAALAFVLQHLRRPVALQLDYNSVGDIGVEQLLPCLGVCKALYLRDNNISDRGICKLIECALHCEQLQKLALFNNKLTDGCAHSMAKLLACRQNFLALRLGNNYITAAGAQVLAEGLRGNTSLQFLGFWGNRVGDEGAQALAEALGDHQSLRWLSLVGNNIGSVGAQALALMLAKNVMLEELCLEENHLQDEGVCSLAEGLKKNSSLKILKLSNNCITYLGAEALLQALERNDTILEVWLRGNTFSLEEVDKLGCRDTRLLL

O=C(CC1CC1)N1[C@@H]2CN(S(=O)(=O)c3ccccc3)c3ccccc3[C@@H]2[C@@H]1CO
AC50 (HEK293 [1]): 28 µM (active)
AC50 [2]: 28 µM (active)
AC50 (HepG2): 19.8 µM (active)

CO[C@H]1CN(C)C(=O)c2ccc(NC(=O)c3ccc(-c4ccccc4)cc3)cc2OC[C@H](C)NC[C@H]1C
AC50 [3]: 32.2 µM (active)
AC50 [4]: 33.9 µM (active)
AC50 [5]: > 52 µM (inactive)

COC(=O)C1=C(C)N(Cc2ccc(Cl)cc2)C(=S)NC1c1cccc(Cl)c1 (stereo unspecified)
AC50 (HEK293 [1]): 23.4 µM (active)
AC50 (Cryptococcus neoformans): > 70 µM (inactive)
AC50 [2]: 23.4 µM (active)
AC50 (HeLa): > 47 µM (inactive)

O=C(Nc1cccc(NC(=O)C2CCCCC2)c1)c1ccccc1
IC50 [6]: 8 µM (active)

COc1cccc(S(=O)(=O)N(C)C[C@@H]2Oc3cc(C4=CCCCC4)ccc3S(=O)(=O)N([C@H](C)CO)C[C@@H]2C)c1
AC50 [7]: 25.1 µM (active)

O=C1NC(=S)N(c2ccccc2)C(=O)/C1=C/c1ccc(-c2ccc(C(=O)O)c(Cl)c2)o1
IC50 (NS3): 96.9 µM (active)

COc1ccc(C(=O)NCc2cc(C(C)C)no2)cc1OCCN1CCOCC1
IC50 [8]: 6.12 µM (active)

O=C(CNC(=O)c1cccc(Br)c1)N/N=C/c1cc(Br)cc(Br)c1O
EC50 [9]: > 20 µM (inactive)
IC50 (HEK293 [10]): 19.4 µM (active)
EC50 (HEK293 [11]): > 20 µM (inactive)
IC50 (HEK293 [12]): > 20 µM (inactive)
IC50 (HEK293 [13]): > 20 µM (inactive)
IC50 (HEK293 [14]): > 20 µM (inactive)
IC50 (Albumin): > 94.1 µM (inactive)
